Where two headings read alike, the source gives them in different places.
Assays:
Cryptosporidium parvum = assay: C. parvum proliferation in HCT-8 cells, 48 h high-content imaging assay; assay type: cell-based, Cryptosporidium parvum (Iowa strain); settings: for EC50: Cryptosporidium parvum, 48 h; for EC99 against C. parvum: concentration used in washout assay
[1] = HepG2 72 h cytotoxicity (CellTiter-Glo); assay type: cell-based, human; settings: human
Experimental: Two mammalian cell lines were used for counter-screening for general cytotoxicity of hit compounds: human embryonic kidney cells (HEK293T; ATCC CRL-3216) and human hepatocellular carcinoma cells (HepG2; ATCC HB-8065). […] Compounds were pre-spotted into tissue culture-treated white solid-bottomed 1536-well plates (Greiner) in a 1:3 dose-response dilution (top concentration 20 μM). HEK293T and HepG2 cells were diluted to 75×10^3 cells/mL and 150×10^3 cells/mL, respectively, and 5 μL/well were dispensed into assay plates with a MultiFlo FX Multi-Mode Dispenser (Biotek). […] At the completion of the assay, CellTiter-Glo (Promega) was prepared at 1:2 (reagent:water) of the manufacturer’s instructions, and 2 μL were dispensed into each well. After a 5 min incubation at room temperature, luminescence readings were measured with an EnVision Multilabel Plate Reader (Perkin Elmer). […] were uploaded into Genedata Screener (v13.0-Standard), and data normalized to DMSO- and puromycin-treated wells. A four-parameter non-linear regression curve fit was applied to dose-response data using Genedata to determine the half maximal cytotoxic concentration (CC50) of each compound.

C. parvum = assay: Mouse model of acute cryptosporidiosis, fecal oocyst shedding by flow cytometry; assay type: in vivo, C57BL/6 IFNγ-/- mice; settings: for oocyst shedding, % of mock-dosed mice: 10 mg/kg oral on days 4, 5, 6 p.i., 10^4 oocysts, day 7 (within 24 h of end of treatment)
Experimental: Four week old female C57BL/6 IFNγ^-/- mice were purchased from the Jackson Laboratory and acclimated for four to ten days in specific pathogen-free conditions in the Health Sciences Biomedical Research Facility at the University of California, San Diego. Mice were provided water and chow (Teklad 2920X) ad libitum. […] Treatment regimens included 10 mg/kg, 100 mg/kg, and 0 mg/kg (vehicle only; n = 4 per group). Certain assays also involved gavage of characterized anticryptosporidial BKI-1294 (a kind gift from W. […] Oocysts were extracted via a modified discontinuous sucrose gradient technique. Briefly, […] solution was freshly prepared by dissolving 156.25 g sucrose and 2.5 mL phenol in 100 mL water. Fecal pellets were removed from storage then homogenized by vortexing and pipetting. […] Oocysts were floated from feces by centrifugation at 1,000×g for 20 min and collected with a pipet tip from the 1.064/1.103 specific gravity interface. Oocysts were rinsed once in cold PBS, pelleted by centrifugation at 15,000×g for 10 min, and resuspended in PBS. 50 μL aliquots were incubated for 30 min at room temperature with 0.25 μg fluorescein isothiocyanate-conjugated mouse anti-Cryptosporidium antibody (OW50-FITC, BioRad 2402-3007), then diluted to 200 μL with PBS. Samples were analyzed using a Guava EasyCyte flow cytometer and CytoSoft Data Acquisition and Analysis software (v5.3; Guava Technologies, Inc.), using a 100 s sampling interval, 0.59 μL/s flow rate, and logical gating of forward and side light scatter and OW50-FITC fluorescence signals. Each experimental run included positive and negative controls to calibrate region settings discriminating the oocyst-FITC population from background signals. Oocyst counts/mL sample values were exported to Excel (Microsoft Corp.) for normalization to counts/mg feces. Final graphing and statistical analyses of data were done using GraphPad Prism software (v6, GraphPad Software, Inc.). Two-way ANOVA with Dunnett's correction (Fig 4A) and unpaired multiple t-tests with False Discovery Rate approach (Fig 4B) were performed on % Vehicle data to determine significance between vehicle-treated and compound-treated mice.

[2] = system: Cryptosporidium hominis (TU502); assay: C. hominis proliferation in HCT-8 cells, 48 h high-content imaging assay; assay type: cell-based; settings: Cryptosporidium hominis
Experimental: Methods for continuous, in vitro cultivation of Cryptosporidium spp. have not been well established. Instead, in vivo oocyst propagation of C. parvum is performed in calves, a more promiscuous Cryptosporidium species for animal and human infections. For C. hominis, gnotobiotic piglets are the primary means of propagation. The calf is the more accessible model, making C. parvum the more convenient species to screen. However, C. hominis is equally clinically relevant with regards to human cryptosporidiosis. […] High purity powders of the 10 filtered C. parvum Bioactives screen hits and both GHCDL screen hits were tested against C. hominis (TU502) to confirm activity against both species.
Cells were then plated (5 μL/well) into 1536-well assay plates at a density of 5.5×10^5 cells/mL (2,750 cells/well).
C. parvum oocysts (Iowa strain, isolated from infected calves) were purchased from the Sterling Parasitology Laboratory, University of Arizona, and stored at 4°C for ≤ 3 months in an antibiotic solution (0.01% Tween 20 containing 100 U/mL penicillin and 100 μg/mL gentamicin). C. hominis oocysts (TU502, isolated from gnotobiotic piglets) were purchased from the Tzipori Laboratory, Cummings School of Veterinary Medicine, Tufts University, and stored at 4°C for ≤ 2 weeks in an antibiotic solution (100 U/mL penicillin and 100 μg/mL streptomycin). For infection of assay plates, 24 h after cell seeding, oocysts were excysted and prepared for inoculation as previously described. Briefly, the oocysts were diluted into 1 mL pre-warmed 10 mM HCl and then incubated in a 37°C water bath for 10 min. Oocysts were then pelleted at 3,000×g for 1 min in a microcentrifuge (Thermo), and the supernatant was carefully aspirated. Oocysts were resuspended in 2 mM sodium taurocholate in DPBS++ (with 0.9 mM CaCl2 and 0.5 mM MgCl2) and incubated at room temperature for 20 min. After incubation in bile salts, the oocysts were diluted 1:100 and free sporozoites and intact oocysts were enumerated to determine the percentage of excystation.
Plates were then washed twice with phosphate buffered saline (PBS). […] To prevent non-specific binding, the cells were blocked with SuperBlock™ T20 blocking agent (Thermo) for 1 h at room temperature. Cryptosporidium parasites were stained with 1 μg/mL fluorescein isothiocyanate (FITC)-conjugated Vicia villosa lectin (Vector Laboratories) in 1:10 diluted SuperBlock™ in PBS-T, supplemented with 3 μM 4',6-diamidino-2-phenylindole (DAPI) to visualize host cell nuclei. Staining was for 1 h at room temperature in the dark. Finally, cells were washed twice with PBS-T and the plates were sealed with adhesive foil. The plates were imaged with a CellInsight CX5 High Content Screening Platform (Thermo) with a 10× objective. […] The software identified primary objects (HCT-8 host cells) and spots within allowed distances to the nuclei (Cryptosporidium). Both cytotoxicity against HCT-8 cells (number of nuclei relative to DMSO-treated controls) and Cryptosporidium inhibition (spot counts relative to DMSO-treated controls) were assessed.
Images were processed by the HCS Studio Scan software, and Selected Object Count (HCT-8 cells) and Spot Count (Cryptosporidium) were analyzed in Genedata Screener (v13.0-Standard). Spot Count and Selected Object Count were normalized to neutral controls minus inhibitors (floxuridine for Spot Count, and puromycin for Selected Object Count).

[3] = HCT-8 cells, read-out: EC50 against C. parvum
[4] = in HCT-8 cells, value (SD; n), read-out: C. parvum 48H Assay EC50 [µM] (SD; n)
[5] = in HCT-8 cells, 48 h, value (SD; n), read-out: C. hominis 48H Assay EC50 [µM] (SD; n)

Row | SMILES | EC50 (Cryptosporidium parvum; [3]) | EC50 (Cryptosporidium parvum; [4]) | EC99 against C. parvum (Cryptosporidium parvum) | CC50 at 72 h [1] | oocyst shedding, % of mock-dosed mice (C. parvum) | EC50 [2, 5] | fold more potent against C. parvum than C. hominis (Cryptosporidium parvum; C. parvum vs C. hominis EC50) | CC50 at 72 h ([1]; HepG2 cells, 72 h, value (SD; n), read-out: HepG2 72H Cytotoxicity CC50 [µM] (SD; n)) | oocyst shedding, % of control group (C. parvum; 10 mg/kg oral daily from day 4 p.i., within two days of treatment onset) | oocyst shedding (C. parvum; once daily for three consecutive days or a single high dose) | oocyst shedding, % of mock-treated mice (C. parvum; single 100 mg/kg oral dose on day 4, 1×10^6 oocysts, second day after treatment) | EC50 ([2]; HCT-8, same in vitro host cell line, read-out: EC50 against C. hominis)
1 | CCOc1ccc2cc(-c3nn(CC4CCN(C)CC4)c4ncnc(N)c34)ccc2c1 [BKI-1294] | 0.4 µM | 0.388 µM | 2 µM | 11.1 µM | 18.1% ± 2.2% | 0.457 µM |  |  |  |  |  | 
2 | CC(C)/N=c1\cc2n(-c3ccc(Cl)cc3)c3ccccc3nc-2cc1Nc1ccc(Cl)cc1 [Clofazimine] | 0.015 µM | 0.0149 µM | 0.03 µM |  | below 1% | 0.341 µM | ~ 20 fold | > 20 µM | 2.5% ± 1.7% | reduction of oocyst shedding below the limit detectable by flow cytometry | 1.5% ± 0.4% | 0.34 µM

Source: article PMC5310922, “A high-throughput phenotypic screen identifies clofazimine as a potential treatment for cryptosporidiosis” (PLoS Neglected Tropical Diseases, 2017)
